Data from patent US8497245B2, “Trypsin-like serine protease inhibitors, their preparation and use as selective inhibitors of the clotting factors IIa and Xa” (The Medicines Company (Leipzig) GmbH, priority 2010, dated 2013).
Structures can show the parent of a compound that is named as a salt. Where two headings read alike, the source gives them in different places.

Tests used:
Type in all cases: biochemical
[1] = biological target: T1, Human plasma kallikrein (h PK) (Homo sapiens, UniProt P03952); assay: Inhibition of human plasma kallikrein (reference enzyme); details: S2302 substrate
T1 construct: purchased Enzyme Research Laboratories
T1 sequence (P03952 391-638 limits assumed): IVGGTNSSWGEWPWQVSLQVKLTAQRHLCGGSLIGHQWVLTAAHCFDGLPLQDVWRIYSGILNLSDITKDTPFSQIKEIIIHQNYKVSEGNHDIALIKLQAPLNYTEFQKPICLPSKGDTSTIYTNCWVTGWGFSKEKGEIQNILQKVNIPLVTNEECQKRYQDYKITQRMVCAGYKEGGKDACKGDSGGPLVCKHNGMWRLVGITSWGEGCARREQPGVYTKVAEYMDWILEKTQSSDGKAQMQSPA
T1 sequence (P03952 20-390 partner limits assumed): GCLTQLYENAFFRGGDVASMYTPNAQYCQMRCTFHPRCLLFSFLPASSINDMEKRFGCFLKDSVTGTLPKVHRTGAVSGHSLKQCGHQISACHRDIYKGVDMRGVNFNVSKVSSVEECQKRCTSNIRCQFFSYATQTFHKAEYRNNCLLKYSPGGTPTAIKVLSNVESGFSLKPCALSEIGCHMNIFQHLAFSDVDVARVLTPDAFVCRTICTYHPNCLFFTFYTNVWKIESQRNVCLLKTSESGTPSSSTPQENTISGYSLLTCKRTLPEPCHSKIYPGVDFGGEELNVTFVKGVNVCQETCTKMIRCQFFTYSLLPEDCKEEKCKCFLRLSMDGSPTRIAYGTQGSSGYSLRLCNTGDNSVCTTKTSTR
Description: (§1) The inhibitory effect against the individual purified enzymes was determined in analogy to a previously disclosed method (Stürzebecher et al., J. Med. Chem., 40, 3091-3099 (1997)).
(§2) The release of p-nitroaniline (p-NA, the chromogenic product of the proteolytic activity), was determined by change in absorbance at 405 nm. The equilibrium rates were used to calculate the inhibitor/enzyme dissociation constant (Ki values) by parameter fitting in accordance with the rate equation for competitive inhibition using GraFit (version 4 from Erithacus). The results are reported as Ki values (nanomolar) in table 7 and are the average of at least three determinations.
(§3) Dissociation constants were calculated as described herein.

[2] = biological target: T2, Human plasmin (h plasmin) (Homo sapiens, UniProt P00747); assay: Inhibition of human plasmin (reference enzyme); details: Chromozym PL substrate
T2 construct: purchased Calbiochem
T2 sequence (P00747 581-810 limits assumed): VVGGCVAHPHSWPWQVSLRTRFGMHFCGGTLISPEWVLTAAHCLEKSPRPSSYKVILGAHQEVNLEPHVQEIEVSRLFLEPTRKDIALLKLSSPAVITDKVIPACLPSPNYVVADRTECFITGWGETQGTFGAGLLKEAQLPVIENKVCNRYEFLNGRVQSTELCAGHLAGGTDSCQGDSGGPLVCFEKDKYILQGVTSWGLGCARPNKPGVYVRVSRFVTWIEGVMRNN
T2 sequence (P00747 97-580 partner limits assumed): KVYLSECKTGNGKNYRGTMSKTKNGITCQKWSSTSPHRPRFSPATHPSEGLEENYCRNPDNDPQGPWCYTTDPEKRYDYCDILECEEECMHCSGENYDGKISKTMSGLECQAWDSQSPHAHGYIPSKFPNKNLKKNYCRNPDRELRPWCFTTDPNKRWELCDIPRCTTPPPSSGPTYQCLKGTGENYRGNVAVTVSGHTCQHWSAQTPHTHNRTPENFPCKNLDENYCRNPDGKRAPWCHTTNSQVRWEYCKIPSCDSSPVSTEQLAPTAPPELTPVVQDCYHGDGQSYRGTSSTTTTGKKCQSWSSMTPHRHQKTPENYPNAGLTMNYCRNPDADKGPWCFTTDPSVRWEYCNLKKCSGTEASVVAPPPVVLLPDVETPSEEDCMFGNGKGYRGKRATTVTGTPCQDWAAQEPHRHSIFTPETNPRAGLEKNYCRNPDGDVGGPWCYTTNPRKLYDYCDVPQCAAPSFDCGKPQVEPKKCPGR
Description: as §1, §2, §3

[3] = biological target: T3, Subcomponent "s" of Human Complement Component 1 (h C1s) (Homo sapiens, UniProt P09871); assay: Inhibition of human C1s (reference enzyme); details: S-2314 substrate; read-out: Ki h Cls
T3 construct: purchased Calbiochem
T3 sequence (P09871 438-688 limits assumed): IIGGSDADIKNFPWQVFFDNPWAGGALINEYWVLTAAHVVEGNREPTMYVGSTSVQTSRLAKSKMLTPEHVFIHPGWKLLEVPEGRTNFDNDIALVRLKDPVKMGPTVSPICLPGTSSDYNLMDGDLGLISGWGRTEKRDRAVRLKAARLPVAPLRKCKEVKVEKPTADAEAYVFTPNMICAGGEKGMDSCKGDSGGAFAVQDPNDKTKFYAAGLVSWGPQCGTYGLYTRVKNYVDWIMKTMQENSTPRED
T3 sequence (P09871 16-437 partner limits assumed): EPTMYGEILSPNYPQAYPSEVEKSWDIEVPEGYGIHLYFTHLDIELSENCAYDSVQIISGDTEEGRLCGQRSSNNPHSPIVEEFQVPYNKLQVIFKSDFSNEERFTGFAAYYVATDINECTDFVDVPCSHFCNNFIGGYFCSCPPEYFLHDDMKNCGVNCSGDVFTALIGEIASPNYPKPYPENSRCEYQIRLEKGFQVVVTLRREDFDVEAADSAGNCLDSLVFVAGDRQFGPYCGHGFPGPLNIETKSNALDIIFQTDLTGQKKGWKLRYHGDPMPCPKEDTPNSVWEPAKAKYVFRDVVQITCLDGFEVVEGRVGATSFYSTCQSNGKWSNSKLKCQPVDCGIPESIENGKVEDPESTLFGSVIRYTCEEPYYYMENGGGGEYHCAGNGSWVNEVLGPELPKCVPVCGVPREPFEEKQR
Description: as §1, §2, §3

[4] = biological target: T4, human factor IIa (human alpha-thrombin) (Homo sapiens, UniProt P00734); assay: Inhibition constants for human factor IIa, chromogenic substrate assay; details: 25° C., Pefachrome tPA substrate, average of at least three determinations; read-out: Ki h FIIa
T4 construct: human alpha-thrombin from Enzyme Research Laboratories; purchased Enzyme Research Laboratories
Description: as §1
(§4) 200 μL of TBS (0.05 M trishydroxymethylaminomethane; 0.154 M NaCl, 2% ethanol, pH 8.0)
as §2

human Factor Xa = biological target: T5, human Factor Xa (Homo sapiens, UniProt P00742); assay: Inhibition constants for human factor Xa, chromogenic substrate assay; details: 25° C., Pefachrome FXa substrate, average of at least three determinations; read-out: Ki h FXa
T5 construct: human Factor Xa from Enzyme Research Laboratories; purchased Enzyme Research Laboratories
T5 sequence (P00742 235-488 limits assumed): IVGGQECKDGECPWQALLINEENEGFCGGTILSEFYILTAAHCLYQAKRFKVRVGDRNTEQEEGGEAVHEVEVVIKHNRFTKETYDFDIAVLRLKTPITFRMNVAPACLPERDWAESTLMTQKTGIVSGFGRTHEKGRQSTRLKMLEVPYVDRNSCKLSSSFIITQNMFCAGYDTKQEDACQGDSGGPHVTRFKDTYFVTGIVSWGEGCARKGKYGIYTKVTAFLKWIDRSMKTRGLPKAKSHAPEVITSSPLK
T5 sequence (P00742 41-179 partner limits assumed): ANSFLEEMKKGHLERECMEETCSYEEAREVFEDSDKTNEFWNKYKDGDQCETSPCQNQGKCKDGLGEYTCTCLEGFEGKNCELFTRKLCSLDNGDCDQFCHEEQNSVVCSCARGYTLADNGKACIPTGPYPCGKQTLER
Description: as §1, §4, §2

[5] = biological target: T6, Human urinary kallikrein (h uKK) (Homo sapiens, UniProt P06870); assay: Inhibition of human urinary kallikrein (reference enzyme); details: S-2266 substrate
T6 construct: purchased Lee Biosolutions
T6 sequence (P06870 25-262): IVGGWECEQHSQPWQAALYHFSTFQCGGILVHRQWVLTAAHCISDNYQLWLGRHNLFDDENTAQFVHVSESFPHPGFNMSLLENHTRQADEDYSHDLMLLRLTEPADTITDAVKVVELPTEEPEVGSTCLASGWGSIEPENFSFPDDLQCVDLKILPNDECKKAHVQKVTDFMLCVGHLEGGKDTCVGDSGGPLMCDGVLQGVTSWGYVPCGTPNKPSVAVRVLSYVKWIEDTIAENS
Description: as §1, §2, §3

[6] = biological target: T7, Human tissue-type plasminogen activator (h t-PA) (Homo sapiens, UniProt P00750); assay: Inhibition of human tissue-type plasminogen activator (reference enzyme)
T7 construct: purchased Boehringer Ingelheim Actilyse
T7 sequence (P00750 36-562): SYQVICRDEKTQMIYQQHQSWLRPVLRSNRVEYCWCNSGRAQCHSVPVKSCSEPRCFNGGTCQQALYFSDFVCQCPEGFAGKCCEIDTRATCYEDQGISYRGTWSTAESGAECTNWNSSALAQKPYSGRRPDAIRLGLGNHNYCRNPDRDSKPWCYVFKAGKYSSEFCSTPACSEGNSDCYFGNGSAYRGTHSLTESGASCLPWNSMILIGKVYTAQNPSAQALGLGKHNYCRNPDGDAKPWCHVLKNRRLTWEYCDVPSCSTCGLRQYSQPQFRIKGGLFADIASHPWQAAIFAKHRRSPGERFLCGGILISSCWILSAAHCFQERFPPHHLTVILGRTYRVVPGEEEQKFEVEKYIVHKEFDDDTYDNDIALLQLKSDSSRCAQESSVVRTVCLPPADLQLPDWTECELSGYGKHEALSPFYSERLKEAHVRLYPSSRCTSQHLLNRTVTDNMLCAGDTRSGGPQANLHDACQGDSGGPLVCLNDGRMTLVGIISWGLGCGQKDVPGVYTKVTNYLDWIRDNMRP
Description: The equilibrium rates were used to calculate the inhibitor/enzyme dissociation constant (Ki values) by parameter fitting in accordance with the rate equation for competitive inhibition using GraFit (version 4 from Erithacus).
as §3

[7] = biological target: T8, Human urokinase type plasminogen activator (h u-PA) (Homo sapiens, UniProt P00749); assay: Inhibition of human urokinase type plasminogen activator (reference enzyme); details: H-Glu-Gly-Arg-pNA substrate
T8 construct: purchased MEDAC GmbH Urokinase HS medac
Description: as §1, §2, §3

[8] = biological target: T9, Subcomponent "r" of Human Complement Component 1 (h C1r) (Homo sapiens, UniProt P00736); assay: Inhibition of human C1r (reference enzyme); details: S-2314 substrate; read-out: Ki h Clr
T9 construct: purchased Calbiochem
T9 sequence (P00736 464-705 limits assumed): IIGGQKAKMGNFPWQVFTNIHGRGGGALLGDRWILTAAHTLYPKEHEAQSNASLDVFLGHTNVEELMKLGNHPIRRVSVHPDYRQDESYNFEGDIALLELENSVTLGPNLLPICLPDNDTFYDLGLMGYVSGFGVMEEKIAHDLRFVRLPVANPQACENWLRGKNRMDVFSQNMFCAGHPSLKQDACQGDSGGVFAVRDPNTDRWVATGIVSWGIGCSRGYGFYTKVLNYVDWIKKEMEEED
T9 sequence (P00736 18-463 partner limits assumed): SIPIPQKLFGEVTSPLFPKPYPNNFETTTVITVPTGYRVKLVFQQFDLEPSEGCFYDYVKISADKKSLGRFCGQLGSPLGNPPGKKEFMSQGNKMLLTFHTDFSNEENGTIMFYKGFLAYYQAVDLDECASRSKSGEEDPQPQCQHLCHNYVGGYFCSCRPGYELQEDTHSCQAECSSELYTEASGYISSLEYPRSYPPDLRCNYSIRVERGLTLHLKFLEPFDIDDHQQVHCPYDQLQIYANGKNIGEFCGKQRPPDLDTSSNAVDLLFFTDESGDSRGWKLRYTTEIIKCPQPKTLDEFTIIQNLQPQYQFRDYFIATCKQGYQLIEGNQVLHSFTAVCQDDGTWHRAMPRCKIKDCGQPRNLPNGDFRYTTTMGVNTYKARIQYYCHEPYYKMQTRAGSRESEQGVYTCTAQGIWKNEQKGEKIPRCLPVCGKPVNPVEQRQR
Description: as §1, §2, §3

[9] = biological target: T10, Human Activated Protein C (h aPC) (Homo sapiens, UniProt P04070); assay: Inhibition of human activated protein C (reference enzyme); details: Pefachrome PCa substrate
T10 construct: purchased Enzyme Research Laboratories
T10 sequence (P04070 212-450 limits assumed): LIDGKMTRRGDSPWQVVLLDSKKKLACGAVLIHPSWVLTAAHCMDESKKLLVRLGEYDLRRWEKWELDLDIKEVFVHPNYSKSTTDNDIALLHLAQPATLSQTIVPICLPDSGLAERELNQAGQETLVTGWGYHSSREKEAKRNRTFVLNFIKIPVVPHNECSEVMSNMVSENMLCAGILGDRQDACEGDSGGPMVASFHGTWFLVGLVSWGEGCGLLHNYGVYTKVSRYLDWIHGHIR
T10 sequence (P04070 43-197 partner limits assumed): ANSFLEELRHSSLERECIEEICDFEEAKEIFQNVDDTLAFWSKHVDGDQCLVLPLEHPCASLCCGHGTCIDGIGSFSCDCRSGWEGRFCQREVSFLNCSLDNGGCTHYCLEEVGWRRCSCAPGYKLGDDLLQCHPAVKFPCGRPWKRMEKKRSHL
Description: as §1, §2, §3

[10] = Pefachrome tPA substrate, read-out: Ki h t-PA

Structure (SMILES) | Ki [1] | Ki [2] | Ki [3] | Ki [4] | Ki (human Factor Xa) | Ki [5] | Ki [6, 10] | Ki [7] | Ki [8] | Ki [9] | Ki [6]
NCc1ccc(Cl)cc1CNC(=O)[C@@H]1CCCN1C(=O)[C@H](N)CCC(=O)N1CCOCC1 [Compound 2.49, H-D-Glu(morpholino)-L-Pro-Amb(2-AMe-5-Cl)×2 TFA] | > 10 µM | > 100 µM | > 100 µM | 0.008 µM | 134 nM | > 100 µM | > 100 µM | > 100 µM | > 10 µM | > 10 µM | –
NCc1ccc(Cl)cc1CNC(=O)[C@@H]1CCCN1C(=O)[C@@H](CCC(=O)N1CCOCC1)NC(=O)OCc1ccccc1 [Compound 2.33] | 6.06 µM | > 20 µM | > 50 µM | 0.0014 µM | 8.8 nM | > 40 µM | > 20 µM | > 50 µM | > 100 µM | > 30 µM | –
CC(=O)N1CCC(CN(C)C(=O)C[C@@H](NS(=O)(=O)Cc2ccccc2)C(=O)N2CCC[C@H]2C(=O)NCc2cc(Cl)ccc2CN)CC1 [Compound 2.17] | 0.417 µM | > 5 µM | > 100 µM | 0.0002 µM | 3.7 nM | > 20 µM | > 100 µM | > 40 µM | > 10 µM | > 40 µM | –
CN(C(=O)C[C@@H](NS(=O)(=O)Cc1ccccc1)C(=O)N1CCC[C@H]1C(=O)NCc1cc(Cl)ccc1CN)C1CCNCC1 [Compound 2.3] | 5.31 µM | > 100 µM | > 20 µM | 0.003 µM | 23 nM | > 50 µM | – | > 100 µM | > 100 µM | > 10 µM | > 50 µM
CN(CC1CCNCC1)C(=O)C[C@@H](NS(=O)(=O)Cc1ccccc1)C(=O)N1CCC[C@H]1C(=O)NCc1cc(Cl)ccc1CN [Compound 2.16] | 0.417 µM | > 5 µM | > 50 µM | 0.0003 µM | 1.5 nM | > 50 µM | > 50 µM | > 100 µM | > 10 µM | > 100 µM | –
NCc1ccc(Cl)cc1CNC(=O)[C@@H]1CCCN1C(=O)[C@@H](CCC(=O)N1CCOCC1)NS(=O)(=O)Cc1ccccc1 [Compound 2.1, Bzls-D-Glu(morpholino)-L-Pro-Amb(2-AMe-5-Cl)×1 TFA] | 1.86 µM | > 28 µM | > 80 µM | 0.00043 µM | 1.1 nM | > 60 µM | > 20 µM | > 40 µM | > 200 µM | > 100 µM | –
NCc1ccc(Cl)cc1CNC(=O)[C@@H]1CCCN1C(=O)[C@@H](CC(=O)Nc1ccncc1)NS(=O)(=O)Cc1ccccc1 [Compound 2.34] | 1.76 µM | > 20 µM | > 100 µM | 0.0017 µM | 21 nM | > 100 µM | > 100 µM | > 100 µM | > 100 µM | > 100 µM | –

Other lines, results leading:

Ki [1] | Ki [2] | Ki [3] | Ki [4] | Ki (human Factor Xa) | Ki [5] | Ki [6, 10] | Ki [7] | Ki [8] | Ki [9] | Ki [6] | Structure (SMILES)
2.69 µM | > 100 µM | > 50 µM | 0.085 µM | 0.68 nM | > 100 µM | > 100 µM | > 100 µM | > 100 µM | > 25 µM | – | NCc1ccc(Cl)cc1CNC(=O)[C@@H]1C[C@H](O)CN1C(=O)[C@@H](CCC(=O)N1CCOCC1)NS(=O)(=O)Cc1ccccc1 [Compound 2.22]
3.34 µM | > 15 µM | > 100 µM | 0.014 µM | 5.2 nM | > 100 µM | > 20 µM | > 25 µM | > 100 µM | > 100 µM | – | NCc1ccc(Cl)cc1CNC(=O)[C@@H]1CCN1C(=O)[C@@H](CC(=O)N1CCNCC1)NS(=O)(=O)Cc1ccccc1 [Compound 2.50, Bzls-D-Asp(piperazinyl)-L-Aze-Amb(2-AMe-5-Cl)×2 TFA]
1.86 µM | > 20 µM | > 100 µM | 0.00072 µM | 0.22 nM | > 10 µM | > 20 µM | > 20 µM | > 30 µM | > 100 µM | – | NCc1ccc(Cl)cc1CNC(=O)[C@@H]1CCN1C(=O)[C@@H](CC(=O)N1CCCCC1)NS(=O)(=O)Cc1ccccc1 [Compound 2.45]
0.639 µM | > 10 µM | > 20 µM | 0.018 µM | 2.8 nM | > 100 µM | 9.27 µM | > 100 µM | > 100 µM | > 20 µM | – | NCc1ccc(Cl)cc1CNC(=O)[C@@H]1C[C@@H](N)CN1C(=O)[C@@H](CC(=O)N1CCNCC1)NS(=O)(=O)Cc1ccccc1 [Compound 2.5]
0.335 µM | 8.75 µM | > 20 µM | 0.00018 µM | 0.049 nM | > 50 µM | 5.05 µM | > 30 µM | > 20 µM | > 100 µM | – | NCc1ccc(Cl)cc1CNC(=O)[C@@H]1C[C@H](N)CN1C(=O)[C@@H](CC(=O)N1CCCCC1)NS(=O)(=O)Cc1ccccc1 [Compound 2.6]
0.322 µM | 11.9 µM | > 30 µM | 0.00057 µM | 0.18 nM | > 50 µM | 15.3 µM | > 50 µM | > 20 µM | > 50 µM | – | NCc1ccc(Cl)cc1CNC(=O)[C@@H]1C[C@@H](N)CN1C(=O)[C@@H](CC(=O)N1CCCCC1)NS(=O)(=O)Cc1ccccc1 [Compound 2.7]
0.337 µM | > 20 µM | > 50 µM | 0.00021 µM | 0.13 nM | > 100 µM | > 10 µM | > 80 µM | > 100 µM | > 40 µM | – | NCc1ccc(Cl)cc1CNC(=O)[C@@H]1CCCN1C(=O)[C@@H](CC(=O)N1CCCC1)NS(=O)(=O)Cc1ccccc1 [Compound 2.8]
4 µM | > 10 µM | > 100 µM | 0.00048 µM | 21 nM | > 100 µM | > 20 µM | > 100 µM | > 100 µM | > 100 µM | – | NCc1ccc(Cl)cc1CNC(=O)[C@@H]1CCCN1C(=O)[C@@H](CCC(=O)N1CCNCC1)NS(=O)(=O)Cc1ccccc1 [Compound 2.31]
